US11697648B2, “Fused pyrimidine pyridinone compounds as JAK inhibitors” (THERAVANCE BIOPHARMA R&D IP, LLC, priority 2019, dated 2023)

Columns and labels:
[1] = molecular target: JAK1 (Homo sapiens (Human), UniProt P23458); test: Biochemical JAK1 kinase assay (LanthaScreen)
Procedure: (§1) Assay 1: Biochemical JAK and Tyk2 Kinase Assays
(§2) A panel of four LanthaScreen JAK biochemical assays (JAK1, 2, 3 and Tyk2) were carried in a common kinase reaction buffer (50 mM HEPES, pH 7.5, 0.01% Brij-35, 10 mM MgCl2, and 1 mM EGTA). Recombinant GST-tagged JAK enzymes and a GFP-tagged STAT1 peptide substrate were obtained from Life Technologies.
(§3) Serially or discretely diluted compounds were pre-incubated with each of the four JAK enzymes and the substrate in white 384-well microplates (Corning) at ambient temperature for 1 h. ATP was subsequently added to initiate the kinase reactions in 10 μL total volume, with 1% DMSO. […] Kinase reactions were allowed to proceed for 1 hour at ambient temperature before a 10 μL preparation of EDTA (10 mM final concentration) and Tb-anti-pSTAT1 (pTyr701) antibody (Life Technologies, 2 nM final concentration) in TR-FRET dilution buffer (Life Technologies) was added. The plates were allowed to incubate at ambient temperature for 1 h before being read on the EnVision reader (Perkin Elmer). Emission ratio signals (520 nm/495 nm) were recorded and utilized to calculate the percent inhibition values based on DMSO and background controls.
(§4) For dose-response analysis, percent inhibition data were plotted vs. compound concentrations, and IC50 values were determined from a 4-parameter robust fit model with the Prism software (GraphPad Software). Results were expressed as pIC50 (negative logarithm of IC50) and subsequently converted to pKi (negative logarithm of dissociation constant, Ki) using the Cheng-Prusoff equation.

[2] = molecular target: JAK3 (Homo sapiens (Human), UniProt P52333); test: Biochemical JAK3 kinase assay (LanthaScreen)
Procedure: as §1, §2, §3, §4

[3] = system: IL-2 stimulated STAT5 phosphorylation in Tall-1 human T cell line (JAK3); test: Cellular JAK3 potency assay: inhibition of IL-2 stimulated pSTAT5 in Tall-1 T cells; assay type: cell-based
Procedure: Assay 2: Cellular JAK3 Potency Assay: Inhibition of IL-2 Stimulated pSTAT5 in Tall-1 T Cells
The potency of test compounds for inhibition of interleukin-2 (IL-2) stimulated STAT5 phosphorylation was measured in the Tall-1 human T cell line (DSMZ) using AlphaLisa. Because IL-2 signals through JAK3, this assay provides a measure of JAK3 cellular potency.
Phosphorylated STAT5 was measured via the AlphaLISA SureFire Ultra pSTAT5 (Tyr694/699) kit (PerkinElmer).
Human T cells from the Tall-1 cell line were cultured in a 37° C., 5% CO2 humidified incubator in RPMI (Life Technologies) supplemented with 15% Heat Inactivated Fetal Bovine Serum (FBS, Life Technologies), 2 mM Glutamax (Life Technologies), 25 mM HEPES (Life Technologies) and 1× Pen/Strep (Life Technologies). Compounds were serially diluted in DMSO and dispensed acoustically to empty wells. Assay media (phenol red-free DMEM (Life Technologies) supplemented with 10% FBS (ATCC)) was dispensed (4 μL/well) and plates shaken at 900 rpm for 10 inns. Cells were seeded at 45,000 cells/well in assay media (4 μL/well), and incubated at 37° C., 5% CO2 for 1 hour, followed by the addition of IL-2 (R&D Systems; final concentration 300 ng/ml) in pre-warmed assay media (4 μL) for 30 minutes. After cytokine stimulation, cells were lysed with 6 ul of 3× AlphaLisa Lysis Buffer (PerkinElmer) containing 1× PhosStop and Complete tablets (Roche). The lysate was shaken at 900 rpm for 10 minutes at room temperature (RT). Phosphorylated STAT5 was measured via the pSTAT5 AlphaLisa kit (PerkinElmer). Freshly prepared acceptor bead mixture was dispensed onto lysate (5 μL) under green filtered <100 lux light. Plates were shaken at 900 rpm for 2 mins, briefly spun down, and incubated for 2 hrs at RT in the dark. Donor beads were dispensed (5 μL) under green filtered <100 lux light. Plates were shaken at 900 rpm for 2 minutes, briefly spun down, and incubated overnight at RT in the dark. Luminescence was measured with excitation at 689 nm and emission at 570 nm using an EnVision plate reader (PerkinElmer) under green filtered <100 lux light.
To determine the inhibitory potency of test compounds in response to IL-2, the average emission intensity of beads bound to pSTAT5 was measured in a human T cell line. IC50 values were determined from analysis of the inhibition curves of signal intensity versus compound concentration. Data are expressed as pIC50 (negative decadic logarithm IC50) values (mean standard deviation).

[4] = selectivity, difference of pKi values
[5] = IL-2 stimulated pSTAT5 in Tall-1 T cells
[6] = selectivity JAK3 over JAK1, difference of pKi
[7] = IL-2 stimulated pSTAT5, Tall-1 T cells

Chain of JAK3 (P52333 whole entry): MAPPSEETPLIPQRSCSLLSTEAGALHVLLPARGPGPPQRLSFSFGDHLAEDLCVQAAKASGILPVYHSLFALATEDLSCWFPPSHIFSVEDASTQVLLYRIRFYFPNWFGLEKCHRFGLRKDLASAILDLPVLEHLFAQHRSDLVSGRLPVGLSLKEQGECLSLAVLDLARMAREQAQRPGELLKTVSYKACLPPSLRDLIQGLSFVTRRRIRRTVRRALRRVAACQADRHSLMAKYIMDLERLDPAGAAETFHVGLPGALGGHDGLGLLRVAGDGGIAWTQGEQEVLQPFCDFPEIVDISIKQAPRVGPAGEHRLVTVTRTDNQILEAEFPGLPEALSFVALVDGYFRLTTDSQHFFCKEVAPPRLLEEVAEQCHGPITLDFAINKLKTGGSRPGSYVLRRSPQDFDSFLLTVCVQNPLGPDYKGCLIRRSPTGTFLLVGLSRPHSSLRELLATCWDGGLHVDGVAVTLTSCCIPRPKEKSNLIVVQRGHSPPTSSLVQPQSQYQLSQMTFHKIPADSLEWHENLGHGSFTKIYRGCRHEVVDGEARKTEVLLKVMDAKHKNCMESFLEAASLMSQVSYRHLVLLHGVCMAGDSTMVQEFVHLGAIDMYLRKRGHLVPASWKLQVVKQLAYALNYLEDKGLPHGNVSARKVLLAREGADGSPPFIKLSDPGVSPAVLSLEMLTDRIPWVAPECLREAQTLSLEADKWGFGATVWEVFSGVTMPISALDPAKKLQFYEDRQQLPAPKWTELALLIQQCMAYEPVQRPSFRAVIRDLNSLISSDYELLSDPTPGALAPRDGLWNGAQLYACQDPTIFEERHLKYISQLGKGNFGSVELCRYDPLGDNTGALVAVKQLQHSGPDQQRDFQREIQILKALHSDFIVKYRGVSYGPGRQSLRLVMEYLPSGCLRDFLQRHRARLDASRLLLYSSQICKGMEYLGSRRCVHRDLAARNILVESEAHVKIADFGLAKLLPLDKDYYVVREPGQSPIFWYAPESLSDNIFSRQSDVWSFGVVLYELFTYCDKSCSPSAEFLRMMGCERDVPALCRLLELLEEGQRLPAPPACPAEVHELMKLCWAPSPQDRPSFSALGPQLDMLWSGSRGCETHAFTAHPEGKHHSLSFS
Chain of JAK1 (P23458 whole entry): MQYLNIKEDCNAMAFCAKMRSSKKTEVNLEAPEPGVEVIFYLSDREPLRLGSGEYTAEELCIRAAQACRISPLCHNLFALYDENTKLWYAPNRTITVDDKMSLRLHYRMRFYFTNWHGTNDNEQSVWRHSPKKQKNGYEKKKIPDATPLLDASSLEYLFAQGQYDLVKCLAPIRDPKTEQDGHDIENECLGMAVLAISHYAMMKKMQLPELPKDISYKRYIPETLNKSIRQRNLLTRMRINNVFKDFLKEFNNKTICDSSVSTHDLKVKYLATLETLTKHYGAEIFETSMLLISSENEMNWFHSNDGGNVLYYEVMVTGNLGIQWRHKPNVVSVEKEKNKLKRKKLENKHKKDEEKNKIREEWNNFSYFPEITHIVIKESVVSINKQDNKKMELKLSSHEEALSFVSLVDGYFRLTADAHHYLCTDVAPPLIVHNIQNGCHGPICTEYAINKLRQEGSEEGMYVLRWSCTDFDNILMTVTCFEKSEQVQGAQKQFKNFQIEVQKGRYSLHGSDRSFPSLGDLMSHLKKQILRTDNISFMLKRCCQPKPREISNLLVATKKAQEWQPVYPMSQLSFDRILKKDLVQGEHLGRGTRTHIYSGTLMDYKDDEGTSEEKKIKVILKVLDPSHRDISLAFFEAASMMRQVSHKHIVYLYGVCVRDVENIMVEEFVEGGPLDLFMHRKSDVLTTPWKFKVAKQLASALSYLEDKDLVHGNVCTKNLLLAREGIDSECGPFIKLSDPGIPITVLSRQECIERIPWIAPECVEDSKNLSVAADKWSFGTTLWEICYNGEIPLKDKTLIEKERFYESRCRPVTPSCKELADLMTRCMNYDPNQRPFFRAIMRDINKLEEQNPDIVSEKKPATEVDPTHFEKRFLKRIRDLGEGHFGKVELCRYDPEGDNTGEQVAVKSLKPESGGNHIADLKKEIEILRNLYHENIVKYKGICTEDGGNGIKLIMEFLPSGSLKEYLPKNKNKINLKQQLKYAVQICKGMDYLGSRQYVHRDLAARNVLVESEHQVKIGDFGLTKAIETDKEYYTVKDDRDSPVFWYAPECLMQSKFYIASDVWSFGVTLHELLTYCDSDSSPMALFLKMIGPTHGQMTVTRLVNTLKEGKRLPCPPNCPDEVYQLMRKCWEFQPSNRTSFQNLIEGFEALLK

## C=CC(=O)N1CCN(CCn2c(=O)ccc3cnc(Nc4cnn(C)c4)nc32)[C@@H](CN(C)C)C1 [Example 262]
[1]
  JAK 1 (pKi): E (E represents a pKi value of 7 or below (Ki of 100 nM or above))
[2]
  JAK 3 (pKi): C (C represents a pKi value between 8 and 9 (Ki between 10 nM and 1 nM))
[2]; [4]
  JAK3 (pKi)-JAK1 (pKi): B (B represents a value of 2.5 to 3)
[3]; [5]
  Tall-1 (pIC50): C (C represents a pIC50 value between 6 and 6.7 (IC50 between 1 μM and 200 nM))

## C=CC(=O)N1CC(CCn2c(=O)ccc3cnc(Nc4ccn(CC)n4)nc32)C1 [Example 254]
[1]
  JAK 1 (pKi): E (E represents a pKi value of 7 or below (Ki of 100 nM or above))
[2]
  JAK 3 (pKi): B (B represents pKi value between 9 and 10 (Ki between 1 nM and 0.1 nM))
[2]; [4]
  JAK3 (pKi)-JAK1 (pKi): A (A represents a value of 3 or above)
[3]; [5]
  Tall-1 (pIC50): B (B represents a pC50 value between 6.7 (included) and 7.5 (IC50 between 200 nM and 32 nM))

## C=CC(=O)N1CCN(CCn2c(=O)ccc3cnc(Nc4cnn(CCOC(C)C)c4)nc32)CC1 [Example 42]
[1]
  JAK 1 (pKi): E (E represents a pKi value of 7 or below (Ki of 100 nM or above))
[2]
  JAK 3 (pKi): B (B represents pKi value between 9 and 10 (Ki between 1 nM and 0.1 nM))
[2]; [6]
  JAK3 (pKi)-JAK1 (pKi): A (A represents a value of 3 or above)
[3]; [7]
  Tall-1 (pIC50): C (C represents a pIC50 value between 6 and 6.7 (IC50 between 1 μM and 200 nM))

## C=CC(=O)N1CC(CCn2c(=O)ccc3cnc(Nc4ccc(N5C[C@@H](C)N(C)C[C@@H]5C)cc4)nc32)C1 [Example 253]
[1]
  JAK 1 (pKi): E (E represents a pKi value of 7 or below (Ki of 100 nM or above))
[2]
  JAK 3 (pKi): A (A represents a pKi value≥10 (Ki≤0.1 nM))
[2]; [4]
  JAK3 (pKi)-JAK1 (pKi): A (A represents a value of 3 or above)
[3]; [5]
  Tall-1 (pIC50): B (B represents a pC50 value between 6.7 (included) and 7.5 (IC50 between 200 nM and 32 nM))

## C=CC(=O)N1CCN(CCn2c(=O)ccc3cnc(Nc4ccn(CC)n4)nc32)[C@@H](CC)C1 [Example 256]
[1]
  JAK 1 (pKi): E (E represents a pKi value of 7 or below (Ki of 100 nM or above))
[2]
  JAK 3 (pKi): B (B represents pKi value between 9 and 10 (Ki between 1 nM and 0.1 nM))
[2]; [4]
  JAK3 (pKi)-JAK1 (pKi): A (A represents a value of 3 or above)
[3]; [5]
  Tall-1 (pIC50): C (C represents a pIC50 value between 6 and 6.7 (IC50 between 1 μM and 200 nM))

## C=CC(=O)N1CCN(CCn2c(=O)ccc3cnc(Nc4ccccc4)nc32)CC1 [Example 40]
[1]
  JAK 1 (pKi): E (E represents a pKi value of 7 or below (Ki of 100 nM or above))
[2]
  JAK 3 (pKi): B (B represents pKi value between 9 and 10 (Ki between 1 nM and 0.1 nM))
[2]; [6]
  JAK3 (pKi)-JAK1 (pKi): A (A represents a value of 3 or above)
[3]; [7]
  Tall-1 (pIC50): C (C represents a pIC50 value between 6 and 6.7 (IC50 between 1 μM and 200 nM))

## C=CC(=O)N1CC(C)(CCn2c(=O)ccc3cnc(Nc4ccc(N5CCN(C)CC5)cc4)nc32)C1 [Example 260]
[1]
  JAK 1 (pKi): E (E represents a pKi value of 7 or below (Ki of 100 nM or above))
[2]
  JAK 3 (pKi): B (B represents pKi value between 9 and 10 (Ki between 1 nM and 0.1 nM))
[2]; [4]
  JAK3 (pKi)-JAK1 (pKi): A (A represents a value of 3 or above)
[3]; [5]
  Tall-1 (pIC50): A (A represents a pIC50 value≥7.5 (IC50≤32 nM))

## C=CC(=O)N1CC(CCn2c(=O)ccc3cnc(Nc4cnn(CCOC)c4)nc32)C1 [Example 21]
[1]
  JAK 1 (pKi): E (E represents a pKi value of 7 or below (Ki of 100 nM or above))
[2]
  JAK 3 (pKi): B (B represents pKi value between 9 and 10 (Ki between 1 nM and 0.1 nM))
[2]; [6]
  JAK3 (pKi)-JAK1 (pKi): A (A represents a value of 3 or above)
[3]; [7]
  Tall-1 (pIC50): C (C represents a pIC50 value between 6 and 6.7 (IC50 between 1 μM and 200 nM))

## C=CC(=O)N1CCN(CCn2c(=O)ccc3cnc(Nc4ccc(N5C[C@@H](C)N(C)[C@@H](C)C5)cc4)nc32)[C@@H](CC)C1 [Example 222]
[1]
  JAK 1 (pKi): E (E represents a pKi value of 7 or below (Ki of 100 nM or above))
[2]
  JAK 3 (pKi): B (B represents pKi value between 9 and 10 (Ki between 1 nM and 0.1 nM))
[2]; [6]
  JAK3 (pKi)-JAK1 (pKi): A (A represents a value of 3 or above)
[3]; [7]
  Tall-1 (pIC50): A (A represents a pIC50 value≥7.5 (IC50≤32 nM))

## C=CC(=O)N1CCN(CCn2c(=O)ccc3cnc(Nc4ccc(N5CCN(C6CC6)CC5)cc4)nc32)CC1 [Example 50]
[1]
  JAK 1 (pKi): E (E represents a pKi value of 7 or below (Ki of 100 nM or above))
[2]
  JAK 3 (pKi): B (B represents pKi value between 9 and 10 (Ki between 1 nM and 0.1 nM))
[2]; [6]
  JAK3 (pKi)-JAK1 (pKi): A (A represents a value of 3 or above)
[3]; [7]
  Tall-1 (pIC50): C (C represents a pIC50 value between 6 and 6.7 (IC50 between 1 μM and 200 nM))

## C=CC(=O)N1CC(CCn2c(=O)ccc3cnc(Nc4cnn(CCN(C)C)c4)nc32)C1 [Example 22]
[1]
  JAK 1 (pKi): E (E represents a pKi value of 7 or below (Ki of 100 nM or above))
[2]
  JAK 3 (pKi): B (B represents pKi value between 9 and 10 (Ki between 1 nM and 0.1 nM))
[2]; [6]
  JAK3 (pKi)-JAK1 (pKi): A (A represents a value of 3 or above)
[3]; [7]
  Tall-1 (pIC50): C (C represents a pIC50 value between 6 and 6.7 (IC50 between 1 μM and 200 nM))

## C=CC(=O)N1CC(CCn2c(=O)ccc3cnc(Nc4ccc(N5CCOCC5)cn4)nc32)C1 [Example 29]
[1]
  JAK 1 (pKi): E (E represents a pKi value of 7 or below (Ki of 100 nM or above))
[2]
  JAK 3 (pKi): B (B represents pKi value between 9 and 10 (Ki between 1 nM and 0.1 nM))
[2]; [6]
  JAK3 (pKi)-JAK1 (pKi): A (A represents a value of 3 or above)
[3]; [7]
  Tall-1 (pIC50): C (C represents a pIC50 value between 6 and 6.7 (IC50 between 1 μM and 200 nM))

## C=CC(=O)N1CCN(C(C)Cn2c(=O)ccc3cnc(Nc4ccc(N5CCN(C)CC5)cc4)nc32)CC1 (stereo not shown) [Example 218]
[1]
  JAK 1 (pKi): E (E represents a pKi value of 7 or below (Ki of 100 nM or above))
[2]
  JAK 3 (pKi): C (C represents a pKi value between 8 and 9 (Ki between 10 nM and 1 nM))
[2]; [6]
  JAK3 (pKi)-JAK1 (pKi): B (B represents a value of 2.5 to 3)
[3]; [7]
  Tall-1 (pIC50): C (C represents a pIC50 value between 6 and 6.7 (IC50 between 1 μM and 200 nM))

## C=CC(=O)N1CCN(CCn2c(=O)ccc3cnc(Nc4ccc(N5C[C@@H](C)N(C)[C@H](C)C5)cc4)nc32)[C@@H](C)C1 [Example 199]
[1]
  JAK 1 (pKi): E (E represents a pKi value of 7 or below (Ki of 100 nM or above))
[2]
  JAK 3 (pKi): B (B represents pKi value between 9 and 10 (Ki between 1 nM and 0.1 nM))
[2]; [6]
  JAK3 (pKi)-JAK1 (pKi): A (A represents a value of 3 or above)
[3]; [7]
  Tall-1 (pIC50): A (A represents a pIC50 value≥7.5 (IC50≤32 nM))

## C=CC(=O)N1CCN(CCn2c(=O)ccc3cnc(Nc4ccn(C(C)C)n4)nc32)[C@@H](CC)C1 [Example 259]
[1]
  JAK 1 (pKi): E (E represents a pKi value of 7 or below (Ki of 100 nM or above))
[2]
  JAK 3 (pKi): B (B represents pKi value between 9 and 10 (Ki between 1 nM and 0.1 nM))
[2]; [4]
  JAK3 (pKi)-JAK1 (pKi): A (A represents a value of 3 or above)
[3]; [5]
  Tall-1 (pIC50): C (C represents a pIC50 value between 6 and 6.7 (IC50 between 1 μM and 200 nM))

## C=CC(=O)N1CCN(CCn2c(=O)ccc3cnc(Nc4ccc(N5C[C@@H](C)N(C)[C@H](C)C5)cc4)nc32)[C@@H](CC)C1 [Example 263]
[1]
  JAK 1 (pKi): E (E represents a pKi value of 7 or below (Ki of 100 nM or above))
[2]
  JAK 3 (pKi): B (B represents pKi value between 9 and 10 (Ki between 1 nM and 0.1 nM))
[2]; [4]
  JAK3 (pKi)-JAK1 (pKi): A (A represents a value of 3 or above)
[3]; [5]
  Tall-1 (pIC50): A (A represents a pIC50 value≥7.5 (IC50≤32 nM))
